What was measured:
[1] = molecular target: C-domain of MALT1 (amino acids 329-824) (Homo sapiens (Human), UniProt Q9UDY8); assay: MALT1 biochemical assay (fluorescence lifetime enzyme activity assay); settings: 60 min pre-incubation, 2.5 nM enzyme, 1 μM peptide substrate
Protocol: The readout parameter is the increase of fluorescence lifetime over time, proportional to enzyme activity.
The assay employs a short peptide substrate labeled with the single fluorophore PT14 as a fluorescence lifetime probe sensitive to the cleavage state of the substrate (PT14: 6-(9-oxo-9H-acridin-10-yl)-hexanoate, AssayMetrics, UK). […] The assay buffer consists of 200 mM Tris/HCl at pH 7.5, 0.8 M Na citrate, 100 μM EGTA, 100 μM DTT and 0.05% (w/v) CHAPS. […] Test compounds were dissolved in 100% (v/v) DMSO or a mixture containing 90% (v/v) DMSO and 10% (v/v) H2O at a stock concentration of 100 mM. Serial dilutions of test compounds were prepared using either 100% (v/v) DMSO or a mixture containing 90% (v/v) DMSO and 10% (v/v) H2O.

[2] = tested on: Human IL2 promoter; assay: Human IL2 promoter reporter gene assay (RGA) in Jurkat cells; format: cell-based; settings: Jurkat clone K22 290_H23, anti-CD28 mAb + PMA stimulation 5.5 h
Protocol: Human IL2 Promoter Reporter Gene Assay (RGA) in Jurkat Cells
The transfected Jurkat clone K22 290_H23 was propagated in RPMI 1640 supplemented with 10% heat inactivated fetal calf serum, 50 μM 2-mercaptoethanol and 1 mg/ml Geneticin. The cell concentration should not exceed 1×10e6/ml during culturing. The cells should not exceed passage 30. Prior to the assay the cells were washed and prepared to the concentration of 2×10e6 cells/ml.
Compound dilutions were made as 2×-concentrated solutions then diluted 1/2 by addition to cells. Two hundred and fifty μl of compound dilution and 250 μl of cells were mixed together in wells of a 96-deep well plate. Cells/compounds premix were incubated 30 min at 37° C. and 5% CO2 directly in the deep well plate.
After pre-incubation of cells with compounds, cells were stimulated with anti-CD28 mAb (clone 15E8) at 3 μg/ml+PMA at 1 μg/ml. Both co-stimulants were diluted in culture medium at a 10×-concentrated solution. 10 μl of co-stimulants were pipetted into the white 96-well plates and 100 μl of cell/compound mix was immediately added in duplicates. The cells were stimulated for 5.5 h at 37° C. and 5% CO2.
After cell stimulation, 50 μl of BriteLitePlus reagent (Perkin Elmer) was added to each well and the bioluminescence was measured with a Wallac EnVision reader (Perkin Elmer).

[3] = molecular target: cIAP2-MALT1 fusion protein (Homo sapiens, UniProt Q9UDY8); assay: cell-based
Sequence of cIAP2-MALT1 fusion protein (Q9UDY8 2-824 limits assumed): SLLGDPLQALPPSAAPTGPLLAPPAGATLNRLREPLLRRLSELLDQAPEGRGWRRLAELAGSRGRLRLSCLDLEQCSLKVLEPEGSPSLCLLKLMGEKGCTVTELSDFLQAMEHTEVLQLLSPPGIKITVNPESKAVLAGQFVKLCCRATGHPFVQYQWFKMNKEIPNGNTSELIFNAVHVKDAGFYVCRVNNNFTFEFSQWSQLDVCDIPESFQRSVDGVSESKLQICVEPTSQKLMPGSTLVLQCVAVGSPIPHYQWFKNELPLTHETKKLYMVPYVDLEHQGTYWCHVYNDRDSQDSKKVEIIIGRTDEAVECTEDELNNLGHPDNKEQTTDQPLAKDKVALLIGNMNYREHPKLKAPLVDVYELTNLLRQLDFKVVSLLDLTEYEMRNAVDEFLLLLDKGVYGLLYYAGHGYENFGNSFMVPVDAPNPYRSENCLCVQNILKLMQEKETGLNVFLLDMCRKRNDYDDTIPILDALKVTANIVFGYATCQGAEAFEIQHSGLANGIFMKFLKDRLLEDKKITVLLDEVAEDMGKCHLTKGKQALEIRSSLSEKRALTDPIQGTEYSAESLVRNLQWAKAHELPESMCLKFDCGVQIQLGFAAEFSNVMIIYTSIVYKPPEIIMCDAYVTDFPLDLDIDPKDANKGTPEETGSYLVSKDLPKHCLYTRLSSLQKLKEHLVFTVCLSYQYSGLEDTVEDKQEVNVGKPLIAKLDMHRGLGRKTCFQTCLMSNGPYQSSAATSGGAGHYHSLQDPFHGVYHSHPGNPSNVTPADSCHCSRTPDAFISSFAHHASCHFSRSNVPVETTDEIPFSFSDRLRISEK
Protocol: For the measurement of compound inhibition, 0.25 μl of test compound were mixed with 12.5 μl of enzyme in wells of the 384-well plates, and incubated for 60 minutes at room temperature (22° C.). After that, 12.5 μl of substrate was added, and the enzymatic reaction was allowed to proceed for 60 minutes at room temperature (22° C.). […] The DMSO content was between 0.9 and 1% (v/v). […] The IC50 value was calculated from the plot of percentage inhibition versus inhibitor concentration using non-linear regression analysis software (Origin, OriginLab Corporation, USA). The data were fitted using a 4 Parameter Logistic Model, characterized by the following equation: y=A2+(A1−A2)/(1+(x/IC50)^p) where y is the %-inhibition at the inhibitor concentration, x. A1 is the lowest inhibition value, and A2 the maximum inhibition value.

Sequence of C-domain of MALT1 (amino acids 329-824) (Q9UDY8 329-824): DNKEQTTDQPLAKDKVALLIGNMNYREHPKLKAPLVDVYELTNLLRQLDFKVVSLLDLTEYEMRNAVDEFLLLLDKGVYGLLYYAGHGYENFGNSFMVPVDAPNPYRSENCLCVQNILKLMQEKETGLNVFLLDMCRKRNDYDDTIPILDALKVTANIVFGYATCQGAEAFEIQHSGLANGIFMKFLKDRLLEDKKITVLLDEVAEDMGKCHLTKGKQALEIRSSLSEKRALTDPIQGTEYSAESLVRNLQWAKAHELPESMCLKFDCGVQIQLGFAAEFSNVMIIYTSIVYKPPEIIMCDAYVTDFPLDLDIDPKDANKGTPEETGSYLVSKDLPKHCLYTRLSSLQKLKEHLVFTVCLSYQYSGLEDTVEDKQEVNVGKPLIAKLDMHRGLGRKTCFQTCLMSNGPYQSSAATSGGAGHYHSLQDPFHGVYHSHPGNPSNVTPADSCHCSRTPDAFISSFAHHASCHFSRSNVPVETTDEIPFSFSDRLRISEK

IC50 [1]	IC50 [2]	IC50 [3]	SMILES
14 nM	47 nM	102 nM	CN(C)C1(c2c(NC(=O)Nc3cnc(-n4nccn4)c(Cl)c3)cnc3cc(Cl)nn23)CC1 [Example 88, 1-(5-chloro-6-(2H-1,2,3-triazol-2-yl)pyridin-3-yl)-3-(2-chloro-7-(1-(dimethylamino)cyclopropyl)pyrazolo[1,5-a]pyrimidin-6-yl)urea]
42 nM	266 nM	345 nM	Cc1c(NC(=O)Nc2cnc(-n3nccn3)c(Cl)c2)cnc2cc(Cl)nn12 [Example 62, 1-(5-chloro-6-(2H-1,2,3-triazol-2-yl)pyridin-3-yl)-3-(2-chloro-7-methylpyrazolo[1,5-a]pyrimidin-6-yl)urea]
	307 nM	301 nM	CC(C)c1c(NC(=O)Nc2ccc(-c3ccnc(N)n3)c(Cl)c2)cnc2cc(Cl)nn12 [Example 23, 1-(4-(2-aminopyrimidin-4-yl)-3-chlorophenyl)-3-(2-chloro-7-isopropylpyrazolo[1,5-a]pyrimidin-6-yl)urea]
5 nM	63 nM	95 nM	COCC(C)(OC)c1c(NC(=O)Nc2cnc(-n3nccn3)c(Cl)c2)cnc2cc(Cl)nn12 (stereo not shown) [Example 81, 1-(5-chloro-6-(2H-1,2,3-triazol-2-yl)pyridin-3-yl)-3-(2-chloro-7-(1,2-dimethoxypropan-2-y)pyrazolo[1,5-a]pyrimidin-6-yl)urea]
28 nM	112 nM	256 nM	CC(C)c1c(NC(=O)Nc2cnc(-n3cc(CN)cn3)c(Cl)c2)cnc2cc(Cl)nn12 [Example 118, 1-(6-(4-(aminomethyl)-1H-pyrazol-1-yl)-5-chloropyridin-3-yl)-3-(2-chloro-7-isopropylpyrazolo[1,5-a]pyrimidin-6-yl)urea]
2 nM	89 nM	105 nM	COCC1(c2c(NC(=O)Nc3cnc(-n4nccn4)c(Cl)c3)cnc3cc(Cl)nn23)CCCO1 (stereo not shown) [Example 91, 1-(5-chloro-6-(2H-1,2,3-triazol-2-yl)pyridin-3-yl)-3-(2-chloro-7-(2-(methoxymethyl)tetrahydrofuran-2-yl)pyrazolo[1,5-a]pyrimidin-6-yl)urea]
14 nM		349 nM	CC(C)c1c(NC(=O)Nc2cc(Cl)cc3c2NC(=O)C3)cnc2cc(Cl)nn12 [Example 31, 1-(5-chloro-2-oxoindolin-7-yl)-3-(2-chloro-7-isopropylpyrazolo[1,5-a]pyrimidin-6-yl)urea]
14 nM		71 nM	CO[C@@H](C)c1c(NC(=O)Nc2ccnc(Cl)c2)cnc2cc(Cl)nn12 [Example 12, (S)-1-(2-chloro-7-(1-methoxyethyl)pyrazolo[1,5-a]pyrimidin-6-yl)-3-(2-chloropyridin-4-yl)urea]
5 nM		112 nM	CO[C@@H](c1c(NC(=O)Nc2cnc(-n3nccn3)c(Cl)c2)cnc2cc(Cl)nn12)C(C)C [Example 5, (R)-1-(5-chloro-6-(2H-1,2,3-triazol-2-yl)pyridin-3-yl)-3-(2-chloro-7-(1-methoxy-2-methylpropyl)pyrazolo[1,5-a]pyrimidin-6-yl)urea]
19 nM		89 nM	CN1CCCC[C@H]1c1c(NC(=O)Nc2cnc(-n3nccn3)c(Cl)c2)cnc2cc(Cl)nn12 [Example 84, (S)-1-(5-chloro-6-(2H-1,2,3-triazol-2-yl)pyridin-3-yl)-3-(2-chloro-7-(1-methylpiperidin-2-yl)pyrazolo[1,5-a]pyrimidin-6-yl)urea]
122 nM		311 nM	C[C@H](OCCN(C)C)c1c(NC(=O)Nc2cnc(-n3nccn3)c(Cl)c2)cnc2cc(Cl)nn12 [Example 82, (S)-1-(5-chloro-6-(2H-1,2,3-triazol-2-yl)pyridin-3-yl)-3-(2-chloro-7-(1-(2-(dimethylamino)ethoxy)ethyl)pyrazolo[1,5-a]pyrimidin-6-yl)urea]
11 nM		117 nM	CC1(c2c(NC(=O)Nc3ccnc(C(F)(F)F)c3)cnc3cc(Cl)nn23)CC1 [Example 17, 1-(2-chloro-7-(1-methylcyclopropyl)pyrazolo[1,5-a]pyrimidin-6-yl)-3-(2-(trifluoromethyl)pyridin-4-yl)urea]
13 nM		187 nM	COCCC(OC)c1c(NC(=O)Nc2cnc(-n3nccn3)c(Cl)c2)cnc2cc(Cl)nn12 (stereo not shown) [Example 64, 1-(5-chloro-6-(2H-1,2,3-triazol-2-yl)pyridin-3-yl)-3-(2-chloro-7-(1,3-dimethoxypropyl)pyrazolo[1,5-a]pyrimidin-6-yl)urea]
34 nM		621 nM	CC(C)(c1c(NC(=O)Nc2ccnc(C(F)(F)F)c2)cnc2cc(Cl)nn12)C1CCOCC1 [Example 80, 1-(2-chloro-7-(2-(tetrahydro-2H-pyran-4-yl)propan-2-yl)pyrazolo[1,5-a]pyrimidin-6-yl)-3-(2-(trifluoromethyl)pyridin-4-yl)urea]
26 nM		502 nM	O=C(Nc1cnc(-n2nccn2)c(Cl)c1)Nc1cnc2cc(Cl)nn2c1CC1CCOCC1 [Example 60, 1-(5-chloro-6-(2H-1,2,3-triazol-2-yl)pyridin-3-yl)-3-(2-chloro-7-((tetrahydro-2H-pyran-4-yl)methyl)pyrazolo[1,5-a]pyrimidin-6-yl)urea]
19 nM		284 nM	O=C(Nc1cnc(-n2nccn2)c(Cl)c1)Nc1cnc2cc(Cl)nn2c1C1CCOC1 (stereo not shown) [Example 57, 1-(5-chloro-6-(2H-1,2,3-triazol-2-yl)pyridin-3-yl)-3-(2-chloro-7-(tetrahydrofuran-3-yl)pyrazolo[1,5-a]pyrimidin-6-yl)urea]
11 nM		221 nM	CO[C@@H](c1c(NC(=O)Nc2ccnc(C(F)(F)F)c2)cnc2cc(Cl)nn12)C(C)C [Example 37, (R)-1-(2-chloro-7-(1-methoxy-2-methylpropyl)pyrazolo[1,5-a]pyrimidin-6-yl)-3-(2-(trifluoromethyl)pyridin-4-yl)urea]
4 nM		171 nM	COc1ccccc1-c1c(NC(=O)Nc2cnc(-n3nccn3)c(Cl)c2)cnc2cc(Cl)nn12 [Example 53, 1-(5-chloro-6-(2H-1,2,3-triazol-2-yl)pyridin-3-yl)-3-(2-chloro-7-(2-methoxyphenyl)pyrazolo[1,5-a]pyrimidin-6-yl)urea]
5 nM		110 nM	COC(C)(C)c1c(NC(=O)Nc2ccnc(C(F)(F)F)c2)cnc2cc(Cl)nn12 [Example 15, 1-(2-chloro-7-(2-methoxypropan-2-yl)pyrazolo[1,5-a]pyrimidin-6-yl)-3-(2-(trifluoromethyl)pyridin-4-yl)urea]
	526 nM	306 nM	CCOc1ncc(NC(=O)Nc2cnc3cc(Cl)nn3c2C(C)C)cc1Cl [Example 25, 1-(5-chloro-6-ethoxypyridin-3-yl)-3-(2-chloro-7-isopropylpyrazolo[1,5-a]pyrimidin-6-yl)urea]
4 nM		106 nM	CC(C)(C)c1c(NC(=O)Nc2cnc(-n3nccn3)c(Cl)c2)cnc2cc(Cl)nn12 [Example 34, 1-(7-(tert-butyl)-2-chloropyrazolo[1,5-a]pyrimidin-6-yl)-3-(5-chloro-6-(2H-1,2,3-triazol-2-yl)pyridin-3-yl)urea]
6 nM		241 nM	COCC1(c2c(NC(=O)Nc3ccnc(C(F)(F)F)c3)cnc3cc(Cl)nn23)CC1 [Example 77, 1-(2-chloro-7-(1-(methoxymethyl)cyclopropyl)pyrazolo[1,5-a]pyrimidin-6-yl)-3-(2-(trifluoromethyl)pyridin-4-yl)urea]

Reference: patent publication US9815842B2, “Pyrazolo pyrimidine derivatives and their use as MALT1 inhibitors” (Novartis AG, priority 2014, dated 2017)
